# From ChEMBL document CHEMBL5223103, “FLT3 inhibitors for acute myeloid leukemia: successes, defeats, and emerging paradigms” (RSC Med Chem, 2022)
# Assays:
# MOLM-13 [1] = assay: Growth inhibition of human MOLM-13 cells assessed as reduction in cell growth by cell viability assay; type: functional
# Kasumi 1 = assay: Growth inhibition of human Kasumi 1 cells assessed as reduction in cell growth by cell viability assay; type: functional
# [2] = Growth inhibition of mouse 32D cells harboring FLT3-ITD-D835Y mutant assessed as growth inhibition WST assay; type: functional
# K562 = assay: Growth inhibition of human K562 cells assessed as reduction in cell growth by cell viability assay; type: functional
# [3] = Growth inhibition of mouse 32D cells harboring FLT3-ITD-Y842C mutant assessed as growth inhibition WST assay; type: functional
# MOLM-14 = assay: Growth inhibition of human MOLM-14 cells assessed as reduction in cell growth by cell viability assay; type: functional
# [4] = Growth inhibition of mouse 32D cells harboring FLT3-ITD-F691L mutant assessed as growth inhibition WST assay; type: functional
# EOL1 = assay: Growth inhibition of human EOL1 cells assessed as reduction in cell growth by cell viability assay; type: functional
# [5] = Growth inhibition of mouse 32D cells harboring FLT3-ITD-Y842H mutant assessed as growth inhibition WST assay; type: functional
# [6] = Growth inhibition of mouse 32D cells harboring FLT3-ITD mutant assessed as growth inhibition by WST assay; type: functional
# [7] = Growth inhibition of mouse 32D cells harboring FLT3-D835Y mutant assessed as growth inhibition WST assay; type: functional
# THP-1 = assay: Growth inhibition of human THP-1 cells assessed as reduction in cell growth by cell viability assay; type: functional
# MV4-11 [8] = assay: Growth inhibition of human MV4-11 cells assessed as reduction in cell growth by cell viability assay; type: functional
# BaF3 [9] = assay: Growth inhibition of mouse BaF3 cells transfected with FLT3-ITD assessed as inhibition of cell growth measured after 48 hrs by MTT assay; type: functional
# BaF3 [10] = assay: Growth inhibition of mouse BaF3 cells transfected with FLT3-D835Y assessed as inhibition of cell growth measured after 48 hrs by MTT assay; type: functional
# BaF3 [11] = assay: Growth inhibition of mouse BAF3 cells harboring FLT3 ITD mutant assessed as reduction in cell inhibition measured after 72 hrs by MTT assay; type: functional
# MOLM-13 [12] = assay: Growth inhibition of human MOLM-13 cells harboring FLT3 resistant inhibitor assessed as growth inhibition; type: functional
# MV4-11 [13] = assay: Growth inhibition of human MV4-11 cells by WST-8 assay; type: functional
# BaF3 [14] = assay: Growth inhibition of mouse BaF3 cells transfected in FLT3-TDK mutant measured after 72 hrs by CCK8 assay; type: functional
# BaF3 [15] = assay: Growth inhibition of mouse BaF3 cells transfected in FLT3-ITD mutant measured after 72 hrs by CCK8 assay; type: functional
# [16] = target: Interleukin-1 receptor-associated kinase 1 (Homo sapiens, UniProt P51617); assay: Inhibition of IRAK-1 (unknown origin)
# Interleukin-1 receptor-associated kinase 1, sequence (P51617 whole entry): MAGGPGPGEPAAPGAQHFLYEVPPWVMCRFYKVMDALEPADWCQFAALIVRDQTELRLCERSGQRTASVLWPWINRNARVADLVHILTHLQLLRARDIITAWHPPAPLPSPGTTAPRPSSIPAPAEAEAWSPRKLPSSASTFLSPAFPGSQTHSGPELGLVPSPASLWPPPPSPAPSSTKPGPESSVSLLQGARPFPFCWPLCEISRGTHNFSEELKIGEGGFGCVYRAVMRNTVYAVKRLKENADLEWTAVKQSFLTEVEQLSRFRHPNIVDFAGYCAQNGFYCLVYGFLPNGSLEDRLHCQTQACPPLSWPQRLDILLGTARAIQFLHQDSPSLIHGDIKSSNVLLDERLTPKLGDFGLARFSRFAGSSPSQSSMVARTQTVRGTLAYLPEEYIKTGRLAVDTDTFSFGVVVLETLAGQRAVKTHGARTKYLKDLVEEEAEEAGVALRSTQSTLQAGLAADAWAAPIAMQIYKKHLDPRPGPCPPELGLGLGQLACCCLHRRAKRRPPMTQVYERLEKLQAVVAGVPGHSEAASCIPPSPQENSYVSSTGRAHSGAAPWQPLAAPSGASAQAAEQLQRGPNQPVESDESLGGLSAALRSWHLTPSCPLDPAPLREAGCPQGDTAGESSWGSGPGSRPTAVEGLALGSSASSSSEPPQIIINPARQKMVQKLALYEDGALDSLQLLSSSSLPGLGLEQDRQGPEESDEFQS
# [17] = target: Macrophage colony-stimulating factor 1 receptor (Homo sapiens, UniProt P07333); assay: Inhibition of FMS (unknown origin)
# Macrophage colony-stimulating factor 1 receptor, sequence (P07333 whole entry): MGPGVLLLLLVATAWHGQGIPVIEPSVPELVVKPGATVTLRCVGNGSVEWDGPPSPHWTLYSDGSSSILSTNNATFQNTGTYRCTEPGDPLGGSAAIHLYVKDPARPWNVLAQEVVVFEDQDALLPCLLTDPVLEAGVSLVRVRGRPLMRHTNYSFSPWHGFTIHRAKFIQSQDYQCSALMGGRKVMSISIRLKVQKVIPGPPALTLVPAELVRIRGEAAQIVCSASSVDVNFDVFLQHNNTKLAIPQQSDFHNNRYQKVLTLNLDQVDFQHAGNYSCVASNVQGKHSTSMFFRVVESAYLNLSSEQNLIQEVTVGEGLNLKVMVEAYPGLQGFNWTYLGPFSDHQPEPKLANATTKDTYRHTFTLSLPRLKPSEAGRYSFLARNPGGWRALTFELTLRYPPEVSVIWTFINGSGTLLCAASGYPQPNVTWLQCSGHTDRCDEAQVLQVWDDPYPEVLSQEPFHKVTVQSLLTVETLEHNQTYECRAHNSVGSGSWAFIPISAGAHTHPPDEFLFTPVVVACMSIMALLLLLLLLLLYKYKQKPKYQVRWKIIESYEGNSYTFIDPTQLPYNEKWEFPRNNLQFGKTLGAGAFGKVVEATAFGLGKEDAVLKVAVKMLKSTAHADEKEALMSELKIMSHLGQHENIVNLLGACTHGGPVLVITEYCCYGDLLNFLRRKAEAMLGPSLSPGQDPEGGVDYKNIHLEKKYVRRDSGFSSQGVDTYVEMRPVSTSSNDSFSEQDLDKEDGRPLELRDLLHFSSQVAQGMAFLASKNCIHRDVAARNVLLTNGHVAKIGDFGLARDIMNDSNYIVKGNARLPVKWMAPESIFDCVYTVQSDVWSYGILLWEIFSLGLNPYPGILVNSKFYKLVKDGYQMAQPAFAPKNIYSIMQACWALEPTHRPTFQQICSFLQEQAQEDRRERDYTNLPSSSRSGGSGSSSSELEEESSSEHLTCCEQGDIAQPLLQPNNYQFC
# MOLM-13 [18] = assay: Growth inhibition of human MOLM-13 cells by WST-8 assay; type: functional
structure (smiles),measurement,setting,value
CCCNc1nc(Nc2ccc(C#N)cc2)ncc1C#CCCCNC(=O)[C@H](C)N(C)C(=O)/C=C/CN(C)C [FF-10101],GI50,MOLM-13 [1],1.1 nM
same,GI50,Kasumi 1,26 nM
same,GI50,[2],0.81 nM
same,GI50,K562,> 1000 nM
same,GI50,[3],3.5 nM
same,GI50,MOLM-14,1.5 nM
same,GI50,[4],10 nM
same,GI50,EOL1,72 nM
same,GI50,[5],5.3 nM
same,GI50,[6],1.9 nM
same,GI50,[7],1.1 nM
same,GI50,THP-1,> 1000 nM
same,GI50,MV4-11 [8],0.83 nM
CCc1nc(C(N)=O)c(Nc2ccc(N3CCC(N4CCN(C)CC4)CC3)c(OC)c2)nc1NC1CCOCC1 [GILTERITINIB],GI50,BaF3 [9],1.8 nM
same,GI50,BaF3 [10],1.6 nM
C[C@]12O[C@H](C[C@]1(O)CO)n1c3ccccc3c3c4c(c5c6ccccc6n2c5c31)CNC4=O [LESTAURTINIB],GI50,BaF3 [11],5 nM
C1=N/C2=N/c3ccc(OCCN4CCCC4)c(c3)COC/C=C/COCc3cccc(c3)C(=C1)N2 [PACRITINIB],GI50,MOLM-13 [12],173 nM
same,GI50,MV4-11 [13],33 nM
same,GI50,BaF3 [14],< 434 nM
same,GI50,BaF3 [15],133 nM
same,IC50,[16],13.6 nM
same,IC50,[17],39.5 nM
same,GI50,MOLM-13 [18],73 nM
